Biological target: T1, Androgen Receptor (AR) protein (Homo sapiens, UniProt P10275, T878A)
T1 construct: endogenous in cells; host or cells: LNCaP
Assay: Androgen Receptor (AR) protein degradation assay in LNCaP cells, western blotting
Format: cell-based
Settings: 20 h; for inhibition at 0.01 µM: 0.01 μM compound; for inhibition at 0.1 µM: 0.1 μM compound; for inhibition at 1 µM: 1 μM compound; for inhibition at 10 µM: 10 μM compound
How it was run: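 AR protein level was detected by western blot (ECL) against GAPDH or β-actin controls, with 8 μg lysate protein loaded per lane after BCA quantification. Lysates came from LNCaP cells exposed to test compound for 20 h, following 3 days of growth in RPMI/10% FBS.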

T1 sequence (P10275 whole entry T878A): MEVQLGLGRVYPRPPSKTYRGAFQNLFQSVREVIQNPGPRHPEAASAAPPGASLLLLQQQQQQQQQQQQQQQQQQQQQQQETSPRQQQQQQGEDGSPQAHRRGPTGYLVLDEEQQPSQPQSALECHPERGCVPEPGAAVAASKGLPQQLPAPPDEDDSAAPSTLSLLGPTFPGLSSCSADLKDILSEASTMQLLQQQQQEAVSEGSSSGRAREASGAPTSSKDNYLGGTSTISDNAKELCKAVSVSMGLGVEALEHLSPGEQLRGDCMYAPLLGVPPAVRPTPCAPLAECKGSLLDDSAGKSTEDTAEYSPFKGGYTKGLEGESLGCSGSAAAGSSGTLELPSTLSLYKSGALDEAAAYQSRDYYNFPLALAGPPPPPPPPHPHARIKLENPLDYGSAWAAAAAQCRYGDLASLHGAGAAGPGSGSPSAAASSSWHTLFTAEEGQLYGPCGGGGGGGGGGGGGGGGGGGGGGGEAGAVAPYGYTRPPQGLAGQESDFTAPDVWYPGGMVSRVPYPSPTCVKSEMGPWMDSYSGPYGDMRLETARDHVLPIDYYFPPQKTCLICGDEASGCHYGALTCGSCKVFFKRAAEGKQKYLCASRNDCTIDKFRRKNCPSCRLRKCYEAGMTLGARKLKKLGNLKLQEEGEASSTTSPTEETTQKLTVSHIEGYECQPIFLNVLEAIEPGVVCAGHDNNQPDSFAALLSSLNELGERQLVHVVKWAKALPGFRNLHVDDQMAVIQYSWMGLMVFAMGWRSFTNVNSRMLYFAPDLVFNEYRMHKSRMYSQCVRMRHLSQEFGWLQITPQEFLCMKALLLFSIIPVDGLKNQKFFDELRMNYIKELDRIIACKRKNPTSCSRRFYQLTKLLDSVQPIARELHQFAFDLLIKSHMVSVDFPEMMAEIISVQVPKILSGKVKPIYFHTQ
T1 sequence (Q96SW2 whole entry partner): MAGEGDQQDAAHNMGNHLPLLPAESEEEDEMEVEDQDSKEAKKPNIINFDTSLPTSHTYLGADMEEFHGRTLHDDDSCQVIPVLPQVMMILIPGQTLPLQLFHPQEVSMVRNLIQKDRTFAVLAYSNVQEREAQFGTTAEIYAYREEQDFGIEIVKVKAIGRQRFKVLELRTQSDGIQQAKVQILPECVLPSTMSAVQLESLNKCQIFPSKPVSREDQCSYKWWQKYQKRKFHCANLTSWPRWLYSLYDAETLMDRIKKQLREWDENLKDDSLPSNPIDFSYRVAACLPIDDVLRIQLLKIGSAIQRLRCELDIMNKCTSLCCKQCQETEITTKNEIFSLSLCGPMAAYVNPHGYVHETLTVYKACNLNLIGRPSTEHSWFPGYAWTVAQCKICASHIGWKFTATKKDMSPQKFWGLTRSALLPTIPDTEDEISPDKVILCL

N#Cc1ccc(N2CCC(C(=O)Nc3ccc(N4CCN(CC5CCN(C(=O)CNc6ccc7c(c6)C(=O)N(C6CCC(=O)NC6=O)C7=O)CC5)CC4)cn3)CC2)cc1C(F)(F)F (stereo not shown) [Example 130, 1-(4-cyano-3-(trifluoromethyl)phenyl)-N-(5-(4-((1-((2-(2,6-dioxopiperidin-3-yl)-1,3-dioxoisoindolin-5-yl)glycyl)piperidin-4-yl)methyl)piperazin-1-yl)pyridin-2-yl)piperidine-4-carboxamide]
inhibition at 0.01 µM: 78%
inhibition at 0.1 µM: 95%
inhibition at 1 µM: 95%
inhibition at 10 µM: 93%

N#Cc1ccc(N2CCC(C(=O)Nc3ccc(C#CC4CCN(CC5CCN(c6ccc7c(c6)C(=O)N(C6CCC(=O)NC6=O)C7=O)CC5)CC4)cn3)CC2)cc1C(F)(F)F (stereo not shown) [Example 131, 1-(4-cyano-3-(trifluoromethyl)phenyl)-N-(5-((1-((1-(2-(2,6-dioxopiperidin-3-yl)-1,3-dioxoisoindolin-5-yl)piperidin-4-yl)methyl)piperidin-4-yl)ethynyl)pyridin-2-yl)piperidine-4-carboxamide]
inhibition at 0.01 µM: 28%
inhibition at 0.1 µM: 66%
inhibition at 1 µM: 82%
inhibition at 10 µM: 87%

N#Cc1ccc(N2CCC(C(=O)Nc3ccc(C#CC4CCN(CC5CN(c6ccc7c(c6)C(=O)N(C6CCC(=O)NC6=O)C7=O)C5)CC4)cn3)CC2)cc1C(F)(F)F (stereo not shown) [Example 132, 1-(4-cyano-3-(trifluoromethyl)phenyl)-N-(5-((1-((1-(2-(2,6-dioxopiperidin-3-yl)-1,3-dioxoisoindolin-5-yl)azetidin-3-yl)methyl)piperidin-4-yl)ethynyl)pyridin-2-yl)piperidine-4-carboxamide]
inhibition at 0.01 µM: 31%
inhibition at 0.1 µM: 67%
inhibition at 1 µM: 72%
inhibition at 10 µM: 77%

N#Cc1ccc(N2CCC(C(=O)Nc3ccc(CCC4CCN(CC5CCN(c6ccc7c(c6)C(=O)N(C6CCC(=O)NC6=O)C7=O)CC5)CC4)cn3)CC2)cc1C(F)(F)F (stereo not shown) [Example 133, 1-(4-cyano-3-(trifluoromethyl)phenyl)-N-(5-(2-(1-((1-(2-(2,6-dioxopiperidin-3-yl)-1,3-dioxoisoindolin-5-yl)piperidin-4-yl)methyl)piperidin-4-yl)ethyl)pyridin-2-yl)piperidine-4-carboxamide]
inhibition at 0.01 µM: 60%
inhibition at 0.1 µM: 93%
inhibition at 1 µM: 98%

N#Cc1ccc(N2CCC(C(=O)Nc3ccc(C#CCN4CC5(CCN(c6ccc7c(c6)C(=O)N(C6CCC(=O)NC6=O)C7=O)CC5)C4)cn3)CC2)cc1C(F)(F)F (stereo not shown) [Example 134, 1-(4-cyano-3-(trifluoromethyl)phenyl)-N-(5-(3-(7-(2-(2,6-dioxopiperidin-3-yl)-1,3-dioxoisoindolin-5-yl)-2,7-diazaspiro[3.5]nonan-2-yl)prop-1-yn-1-yl)pyridin-2-yl)piperidine-4-carboxamide]
inhibition at 0.01 µM: 56%
inhibition at 0.1 µM: 87%
inhibition at 1 µM: 96%
inhibition at 10 µM: 92%

N#Cc1ccc(N2CCC(C(=O)Nc3ccc(N4CCC(CN5CC6(CCN(c7ccc8c(c7)CN(C7CCC(=O)NC7=O)C8=O)CC6)C5)CC4)cn3)CC2)cc1C(F)(F)F (stereo not shown) [Example 135, 1-(4-cyano-3-(trifluoromethyl)phenyl)-N-(5-(4-((7-(2-(2,6-dioxopiperidin-3-yl)-1-oxoisoindolin-5-yl)-2,7-diazaspiro[3.5]nonan-2-yl)methyl)piperidin-1-yl)pyridin-2-yl)piperidine-4-carboxamide]
inhibition at 0.01 µM: 35%
inhibition at 0.1 µM: 94%
inhibition at 1 µM: 85%

N#Cc1ccc(N2CCC(F)(C(=O)Nc3ccc(N4CCC(CN5CC6(CCN(c7ccc8c(c7)CN(C7CCC(=O)NC7=O)C8=O)CC6)C5)CC4)cn3)CC2)cc1C(F)(F)F (stereo not shown) [Example 136, 1-(4-cyano-3-(trifluoromethyl)phenyl)-N-(5-(4-((7-(2-(2,6-dioxopiperidin-3-yl)-1-oxoisoindolin-5-yl)-2,7-diazaspiro[3.5]nonan-2-yl)methyl)piperidin-1-yl)pyridin-2-yl)-4-fluoropiperidine-4-carboxamide]
inhibition at 0.01 µM: 38%
inhibition at 0.1 µM: 92%
inhibition at 1 µM: 91%

From patent US12122763B2, “Substituted piperidines for androgen receptor degradation” (UBIX THERAPEUTICS, INC., priority 2020, dated 2024)
